Marks after values point to notes of the source that are not given here.
What was measured:
[1] = tested on: primary hepatocytes; assay: Amount of change in ammonia in culture medium of primary hepatocytes (Example 2); assay type: cell-based, mouse; details: for Ammonia change amount in culture medium, Increasing rate relative to control (%): 5 mM ammonium chloride, 24 hours, control = 100; for amount of change in ammonia in the culture medium relative to the control (in words): Dunnett's test, n=4
Method: For cells, a hepatocyte culture kit (derived from a 10-week-old male Balb/c mouse, 24 wells, 1×10^5 cells/well, Cosmo Bio) was used. A final concentration of 5 mM of ammonium chloride (015-02991, Wako) and 1.4 μM or 4.2 μM of the following catechins (EGC, Cg or ECg) were added to a medium containing high glucose DMEM (31053028, Gibco) containing GlutaMAX (35050-061, Gibco), penicillin/streptomycin (168-23191, Wako) and ascorbic acid (014-04801, Wako), and the cells were cultured therein: EGC (NH020203, Nagara Science Co., Ltd.); Cg (NH 021302, Nagara Science Co., Ltd.); and ECg (NH 020302, Nagara Science Co., Ltd.). Cells cultured in a medium without any added catechins were used as a control. The culture supernatant was collected 24 hours later, and the ammonia contained therein was quantitatively determined using an ammonia assay kit (Abcam). The decrement in the ammonia amount in the culture medium 24 hour after addition of ammonium chloride and catechins relative to the ammonia amount at the time of addition was defined as an amount of change in ammonia in the culture medium.
Each value in Table 1 represents the increasing rate of the amount of change in ammonia relative to that of the control. The statistical processing was performed by using multigroup comparison by Dunnett's test for n=4 per group (**: p <0.001, *: p<0.05).

[2] = tested on: primary cultured hepatocytes; assay: Urea production of hepatocytes with citrulline and arginine (Reference Example); assay type: cell-based; details: 5 mM ammonium chloride, 24 hours; Arg+Cit 0.5 mM each, Cit 1 mM; vs control
Method: Cells were recovered from the liver of each mouse and dead cells were removed, in the same procedure as in Example 1. Thereafter, cells were suspended in a DMEM medium, seeded at 10^5 cells/well in a 24-well plate, and cultured.
The cells 24 hours after seeding were washed twice with PBS. Thereafter, the medium was replaced with an FBS, arginine, leucine free DMEM medium (D9443, Sigma), and 5 mM of ammonium chloride (control), ammonium chloride+0.5 mM of L-arginine+0.5 mM of L-citrulline (Arg+Cit), or ammonium chloride+1 mM of L-citrulline (Cit) was added thereto. The culture supernatant was collected 24 hours later, and the urea contained therein was quantitatively determined with QuantiChrom Urea Assay Kit (BioAssay Systems).

O=C(O[C@@H]1Cc2c(O)cc(O)cc2O[C@@H]1c1ccc(O)c(O)c1)c1cc(O)c(O)c(O)c1 [ECg, epicatechin gallate]
Ammonia change amount in culture medium, Increasing rate relative to control (%) ([1]; 4.2 μM): 126%

Oc1cc(O)c2c(c1)O[C@H](c1cc(O)c(O)c(O)c1)[C@H](O)C2 [EGC, epigallocatechin]
Ammonia change amount in culture medium, Increasing rate relative to control (%) ([1]; 1.4 μM): 122%
Ammonia change amount in culture medium, Increasing rate relative to control (%) ([1]; 4.2 μM): 186** %
amount of change in ammonia in the culture medium relative to the control (in words) ([1]; 4.2 μM): significantly increases

catechin gallate [Cg]
Ammonia change amount in culture medium, Increasing rate relative to control (%) ([1]; 4.2 μM): 174* %
amount of change in ammonia in the culture medium relative to the control (in words) ([1]; 4.2 μM): significantly increases

NC(=O)NCCC[C@H](N)C(=O)O [Cit, L-citrulline]
amount of urea production by hepatocytes [2]: significantly increased
